Assay results as given in US20250367151A1, “ANTI-VWF THERAPEUTIC FOR PREVENTING ARTERIAL THROMBI” (GEORGIA TECH RESEARCH CORPORATION, priority 2022, published 2025).
“Also recorded” adds a separate entry of the source. Where two headings read alike, the source gives them in different places. Values belong to the compound of their own block, whether it stands above or below them.

Tests used:
tail bleeding in mice [1] = conditions: mice treated with ASA, previously seen (Decouture et al. 2019); cited from earlier work
human whole blood [2] = test: Occlusion time in a stenotic microfluidic model of arterial thrombosis; format: cell-based; conditions: for Average occlusion time: 30 min incubation, shear ~7,500 s-1, untreated 124 s; for Occlusion time, weak NAC responders: 0 mM 112 s; for Occlusion time, strong NAC responders: 0 mM 136 s
Description: Microfluidic tests were run using a microfluidic system previously described (Griffin M T, et al. Inhibition of high shear arterial thrombosis by charged nanoparticles. Biomicrofluidics 2018;12). The chip contains a single inlet split into four outlet channels 475 μm wide and 250 μm tall. Within each outlet channel is a stenotic region 800 μm long where the height decreases to 70 μm. Flow is controlled using a hydraulic pressure head created by a raised reservoir connected to the inlet which generates an initial shear rate of ˜7,500 s-1 in the stenotic region. Channels are coated overnight with 100 μg/mL collagen Type I (Chrono-Log Corp) in 0.9% saline. Blood is filtered with a 37 μm nylon mesh immediately prior to testing to prevent debris from entering the chip.
(§1) For each chip, the mass flow rate of each outlet channel and brightfield images of two stenotic regions were acquired. Mass flow rates for each channel were measured using four mass balances (Ohaus Scout) connected to the device outlets. Occlusion time was defined as the difference between the time blood enters the stenosis region of the microfluidic device and the time when the mass balances register their peak mass. A brightfield, upright microscope (Leica DM6000B) was used in conjunction with a CCD camera (Pixelfly, PCO) to image the stenotic regions of the middle two channels as the occlusive thrombus formed. Images were taken once per second with a 40× magnification. These images were later thresholded into black and white images to identify platelet rich thrombi from the background blood (ImageJ). Average platelet intensity is defined as the average B/W value of the stenosis region. A value of 0 represents a clean channel with no platelets and increasing values indicate platelet accumulation.
(§2) Occlusion times for each concentration were tested using an unpaired Student's t-test. For survival curves, each possible combinations of pairs of concentrations were tested using a log-rank test. Visual measurement of platelet intensities for each concentration were compared using a Mann-Whitney U test. Statistical significance was determined by p<0.05.
Blood was collected from 10 healthy adult volunteers. Subjects were recruited in accordance with Georgia Institute of Technology's Institutional Review Board Guidelines (IRB #17315). Subjects with known bleeding disorders, a history of anti-platelet medications within 10 days of donation, anemia or transmittable blood disease were excluded from the study. Standard phlebotomy techniques were used to obtain blood. Briefly, 60 mL of blood was drawn slowly through a 21 G needle into a 60 ml syringe containing 0.21 mL of a 1000 USP/mL solution of heparin sodium (Fisher Scientific) in PBS to achieve a heparin concentration of […] in the collected blood. Complete Blood Counts (CBCs) were also performed on all donor samples. All tests were run within 4 hours of the blood draw.
(§3) N-acetyl cysteine was added to blood to create final concentrations of 3 mM, 5 mM and 10 mM. For each human subject, a fresh solution of concentrated NAC (Sigma Aldrich) was created in PBS and neutralized to a pH of 7 with NaOH. The concentrated NAC solution was then diluted so that the same volume of NAC solutions was added to each sample. Negative control (OmM) samples were similarly diluted with 0.5 mL of PBS in 15 mL blood. In three individuals, additional experiments were performed at concentrations of 7.5 mM, 20 mM and 40 mM. For all experiments, NAC was allowed to incubate in the blood at room temperature on a shaker for 30 minutes prior to testing.
To test the effect of N-acetylcysteine on reducing arterial thrombosis in human blood, whole blood was perfused collected from 10 healthy human subjects through a stenotic microfluidic channel coated with type I collagen. A constant pressure head of 16 mmHg was formed using an elevated upstream reservoir to create shear rates of ˜7,500 s-1 in the stenotic region and ˜800 s-1 in the rest of the channel. […]

[3] = test system: occlusive thrombi in common carotid artery of C57 mice; test: Murine modified-Folts model of arterial thrombosis (carotid stenosis and crush injury); format: in vivo, mouse; conditions: 200 mg/kg NAC 6 hrs prior and immediately prior to crush injury
[4] = Zhou et al. 2015; cited from earlier work
tail bleeding in mice [5] = test: Tail bleeding model; format: in vivo, mouse; conditions: 400 mg/kg NAC; PBS 2.35 minutes, p=0.14
Method: Bleeding times were assessed using the tail bleeding model described previously (Liu Y, Standardizing a simpler, more sensitive and accurate tail bleeding assay in mice. World J Exp Med. 2012;2:30). Briefly, mice were anesthetized and the distal 3 mm segment of the tail was transected and placed in a vial of warm saline. The injuries were monitored visually to determine the time it took for bleeding to cease.

[6] = test system: occlusive thrombi in common carotid artery of C57 mice; test: Murine modified-Folts model of arterial thrombosis (carotid stenosis and crush injury); format: in vivo, mouse
Method: Formation of occlusive thrombi was measured using a murine Modified-Folts model (Kim D A, et al. Platelet α-granules are required for occlusive high-shear-rate thrombosis. Blood Adv. 2020;4:3258-3267). C57 mice were used under conditions approved by the university animal use and care committees. Following isolation of the common carotid artery, blood flow through the vessel was measured with a flow probe (Transonic Systems). A 6.0 silk suture was then tied around the vessel and tightened until the measured flow rate was approximately 50% of the initial value. This creates a stenosis region with high shear-rate at the apex. The artery is then crushed with forceps to damage the endothelial cells and expose collagen in the extracellular matrix.
In single injection experiments, 13 mice were treated with either 200 mg/kg NAC, 400 mg/kg NAC, or PBS. 100 μL of freshly prepared, neutralized NAC solution or vehicle was I.V. injected approximately 45 minutes prior to the crush injury.
For repeat injection experiments, mice were given either PBS, 200 mg/kg, or 400 mg/kg NAC through a 100 μL I.V. injection 6 hr prior to surgery. Mice were then given a second injection of PBS, 200 mg/kg, or 400 mg/kg NAC approximately 45 minutes prior to the crush injury. Additionally, 4 mice were given a dose of 400 mg/kg NAC through an 100 μL injection 6 hr prior to the surgery, followed by a second injection of PBS immediately prior to the crush injury.
Blood flow measurements were taken with a Transonic flow probe and acquired with Powerlab software (ADInstruments) (Id.). Time to initial occlusion is defined as the time between the crush injury and the first point where flow reaches approximately 0. After occlusion, if flow remains around 0 then the occlusion is characterized as stable. If instead the thrombus detaches and flow increases, the clot is labelled an unstable occlusion.
Statistical significance in time to initial occlusion was determined using unpaired student t-test (p <0.05). Differences in thrombus stability are determined using a Pearson's Chi-squared test (p <0.05).

[7] = test system: platelet aggregation in human whole blood; test: Brightfield platelet intensity (lag time, rapid platelet accumulation rate) in the microfluidic model; format: cell-based
Method: as §1, §2, §3
Brightfield measurements of platelet aggregation were used to establish whether the increase in occlusion time observed in 3 mM and 5 mM cases is primarily due to effects on initial platelet attachment (lag time) or the platelet accumulation rate (RPA). Lag time is defined as the time required for the average platelet intensity measurements to increase to 1% of their maximal value. Average lag times for 0 mM, 3 mM, 5 mM NAC experiments are 49 s, 65 s and 107 s, respectively. The small increases in lag time for 3 mM and 5 mM treatments cannot account for the 125-325 s increases in occlusion time seen in the 3 mM and 5 mM conditions. This is instead explained by a decrease in the rapid platelet accumulation rate, defined as the slope of the platelet intensity graph (FIG. 2B). […] The slope of the platelet intensity curve decreases as NAC concentration increases, with 10 mM NAC having a negligible slope. When the RPA rate for each individual is normalized to the individual's control RPA rate, the platelet aggregation rates for 3 mM, 5 mM and 10 mM are 0.66, 0.38 and −0.12, respectively (FIG. 2D, p<0.01 compared to control for all conditions). The small negative aggregation rate for 10 mM is an artifact caused by mixing of blood and PBS at the interface between the priming solution and the sample.

[8] = Olsson et al. 1988; cited from earlier work
[9] = Elimination of NAC from mouse plasma (literature); format: in vivo; conditions: calculated from half-life of 34 minutes
human whole blood [10] = test: VWF recovery experiment in 10 mM NAC treated blood, microfluidic system; format: cell-based
Method: VWF recovery experiments were performed using 3 individual's 10 mM NAC samples prepped as detailed above. 19 IU/mL of VWF (Humate) was added to these samples and they were immediately perfused through the microfluidic system. Occlusion times and platelet intensities were measured as above.
To test if the NAC prevented arterial thrombosis by modifying VWF as hypothesized, new VWF was added to blood samples treated with 10 mM NAC. […] Although OTs of the recovery samples were higher than the control, the average RPA rates for the control and recovery conditions were similar. By shifting the control curve right, simulating a 76 s increase in lag time, the two curves show a high degree of concordance (FIG. 9).

[11] = two doses of 400 mg/kg NAC 6 hrs apart

Compound: CC(=O)Oc1ccccc1C(=O)O [ASA]
- Average bleeding time (tail bleeding in mice [1]): 5.72 min

- Average bleeding time (tail bleeding in mice [5]): 2.76 min
- Plasma concentration at 6 hrs, of the initial concentration [9]: < 0.05%
Compound: CC(=O)N[C@@H](CS)C(=O)O [NAC, N-acetylcysteine]
- Average occlusion time (human whole blood [2]; 3 mM NAC): 255 s
- Occlusion time, weak NAC responders (human whole blood [2]; 3 mM NAC): 182 s
- Occlusion time, strong NAC responders (human whole blood [2]; 3 mM NAC): 328 s
- Increase in occlusion time (human whole blood [2]; 3 mM and 5 mM conditions vs control): 125 to 325 s
- Average occlusion time (human whole blood [2]; 5 mM NAC): 458 s
- Occlusion time, weak NAC responders (human whole blood [2]; 5 mM NAC): 220 s
- Occlusion time, strong NAC responders (human whole blood [2]; 5 mM NAC): 695 s
- Samples not occluding within the time limit of the experiment (human whole blood [2]; 7.5 mM NAC, 3 individuals, 1000 s window): ~64%
- Occlusion outcome (human whole blood [2]; 7.5 mM NAC, 1000 s window): results were mixed
- Occlusion outcome (human whole blood [2]; 20 mM NAC): did not occlude
- Occlusion outcome (human whole blood [2]; 40 mM NAC): did not occlude
- Inflection point of 4-parameter logistic fit of occlusion time vs NAC dose (human whole blood [2]; r^2 = 0.782): 5.6545 mM
- Logistic growth rate of 4-parameter logistic fit of occlusion time (human whole blood [2]; r^2 = 0.782): 0.7145
- Lower asymptote of 4-parameter logistic fit of occlusion time (human whole blood [2]; r^2 = 0.782): 118.5 s
- Upper asymptote of 4-parameter logistic fit of occlusion time (human whole blood [2]; r^2 = 0.782): 1028.4 s
- Mice that formed no thrombi and remained patent during the entire experiment [3]: Three of the 4
- Estimated elimination half-life in mouse plasma [4]: 34 min
- Clot stability ([6]; 200 mg/kg NAC single injection): recanalized completely; also recorded: more likely to be unstable and recanalize
- Flow after recanalization, of the initial flow ([6]; 200 mg/kg NAC single injection): ~100%
- Clot stability ([6]; 400 mg/kg NAC 6 hrs prior to surgery, PBS immediately prior to crush injury): formed unstable thrombi
- Occlusion ([6]; 400 mg/kg NAC I.V. single injection, N=3, 45 minutes of the experiment): no occlusion was observed; also recorded: completely prevented occlusion
- Observations following administration ([6]; NAC I.V., single injection experiments): lower basal blood flow and initial labored breathing
- Clot stability [6, 11]: majority forming unstable thrombi
- Time to clotting [6, 11]: ≤ 10 min
- Tissue at crush injury site [6, 11]: more severe tissue damage and hemorrhage
- Platelet aggregation (RPA) rate normalized to the individual's control RPA rate ([7]; 3 mM NAC): 0.66
- Reduction of the maximum growth rate of thrombi ([7]; 3 mM NAC): 30%
- Average lag time (time to 1% of maximal platelet intensity) ([7]; 3 mM NAC, 0 mM 49 s): 65 s
- Platelet aggregation (RPA) rate normalized to the individual's control RPA rate ([7]; 5 mM NAC): 0.38
- Reduction of the maximum growth rate of thrombi ([7]; 5 mM NAC): 60%
- Average lag time (time to 1% of maximal platelet intensity) ([7]; 5 mM NAC, 0 mM 49 s): 107 s
- Visible platelet aggregation ([7]; 10 mM NAC, 1000 s of the experiment): no visible aggregation of platelets
- Lag time (time to 1% of maximal platelet intensity) ([7]; 10 mM NAC, 0 mM 49 s): 910 s
- Platelet aggregation (RPA) rate normalized to the individual's control RPA rate ([7]; 10 mM NAC, small negative value said to be an artifact): −0.12
- Visible platelet aggregation ([7]; 20 mM NAC): no visible platelet aggregation
- Visible platelet aggregation ([7]; 40 mM NAC): no visible platelet aggregation
- Visible platelet aggregation ([7]; NAC concentrations over 10 mM): no visible platelet aggregation
- Oral bioavailability [8]: 4-9%

Compound: VWF: VWF (Humate) added at 19 IU/mL to 10 mM NAC treated blood
- Increase in lag time of recovery condition vs control (shift of control curve) (human whole blood [10]; 10 mM NAC + 19 IU vWF): 76 s
- Occlusive thrombus formation after VWF addition (human whole blood [10]; 19 IU/mL VWF added to blood treated with 10 mM NAC): recover the ability to form rapid occlusive thrombi; also recorded: forms occlusive thrombi
